{"source": "patent US7981438B2", "about": "“Use of α-mangostin as a mosquito larvicide” (Wisconsin Alumni Research Foundation, priority 2007, dated 2011)", "key": {"mosquito larvae": {"tested_on": "mosquito larvae", "experiment": "toxicity assessment (larval mortality, Probit LD50) in mosquito larvae", "format": "in vivo", "conditions": "for LD50 in 4th instar (ppm) / LD50 (uM) in 4th instar: 4th instar larvae", "method": "Compound was tested at concentrations within the range of 0.65-25.00 μM. Each assay included 60 larvae (1st instar or 4th instar) in 60 ml ddH2O containing either compound or control agent, mortality was recorded until 90% adult emerge rate. The percentage of mortality was transformed into Probit value and plotted against concentration to determine the LD50 value. Each assay was repeated at least three times with different batches of larvae. The mean and standard deviation values are listed above. ND=not determined due to very low mortality.\nCompounds were tested at concentrations within the range of 0.65-25.00 μM. Each assay included 60 larvae (1st instar or 4th instar) in 60 ml ddH2O containing either compound or control agent. Mortality was recorded until 90% adult emerge rate. The percentage of mortality was transformed into Probit value and plotted against concentrations to determine the LD50 value. Each assay was repeated at least three times with different batches of larvae."}, "[1]": {"tested_on": "mosquito 4th instar larvae", "experiment": "neutral lipid levels in the midgut of 4th instar larvae (Red Oil O staining)", "format": "in vivo", "method": "The newly molted 4th instar larvae were treated with DMSO (the negative control), 25 μM SCPI-1 (the positive control), and 10 μM α-mangostin. The midgut tissue was dissected out at the indicated point in time after treatment initiation. The dissected treated midgut tissue was stained with Red Oil O for neutral lipids in situ."}, "complement C3": {"tested_on": "complement C3", "conditions": "compared with phytoestrogens; FIG. 5, Hopert et al. 1998; cited from earlier work"}, "recombinant AeSCP-2": {"target": "T1, recombinant AeSCP-2 (Aedes aegypti, UniProt Q86PR3)", "T1 sequence (Q86PR3 1-110)": "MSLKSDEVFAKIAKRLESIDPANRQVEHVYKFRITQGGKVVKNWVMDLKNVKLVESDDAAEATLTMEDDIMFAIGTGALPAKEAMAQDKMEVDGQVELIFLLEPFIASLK", "experiment": "in vitro competition binding assay, NBD-cholesterol binding to AeSCP-2", "set-up": "species or system mosquito", "conditions": "at 0.1 mM concentration", "method": "At 0.1 mM concentration, α-mangostin decreased NBD-cholesterol binding to AeSCP-2 by 23-29%. […] Specifically, FIG. 1 illustrates the inhibitory effect of α-mangostin on NBD-cholesterol binding to recombinant AeSCP-2. RFU=relative NBD-cholesterol fluorescent unit normalized with NBD-cholesterol background readings. The assays that were used included 5 μM NBD-cholesterol+5 uM AeSCP-2+increasing concentrations of α-mangostin in […] potassium phosphate buffer (pH 7.4)."}, "[2]": {"conditions": "1st instar larvae, same LD50 expressed in ppm"}, "[3]": {"conditions": "1st instar larvae, tested 0.65-25.00 μM, mean ± SD"}, "[4]": {"conditions": "tested 0.65-25.00 μM, mean ± SD"}}, "note": "Counter-ions that a name gives are not always drawn.", "data": [{"molecule": "COc1ccc(-c2cc(=O)c3c(O)cc(O)c(-c4cc(-c5cc(=O)c6c(O)cc(O)cc6o5)ccc4OC)c3o2)cc1", "note": "[isoginkgetin]", "values": [{"measurement": "LD50 (uM) in 1st instar", "setting": "mosquito larvae; mosquito, in vivo", "result": "11.29 ± 3.00", "unit": "µM"}, {"measurement": "LD50 in 1st instar (ppm)", "setting": "mosquito larvae; mosquito, in vivo", "result": 6.60, "unit": "ppm"}]}, {"molecule": "CC(=O)Nc1ccc(Nc2nc(-c3ccc(Cl)c(Cl)c3)cs2)cc1", "note": "[SCPI-1, N-(4-{[4-(3,4-dichlorophenyl)-1,3-thiazol-2-yl]amino}phenyl)acetamide hydrobromide, reference compound]", "values": [{"measurement": "LD50 in 1st instar (ppm)", "setting": "mosquito larvae; [2]", "result": 1.93, "unit": "ppm"}, {"measurement": "LD50 (uM) in 1st instar", "setting": "mosquito larvae; [3]", "result": "4.21 ± 0.38", "unit": "µM"}, {"measurement": "LD50 in 4th instar (ppm)", "setting": "mosquito larvae; same LD50 expressed in ppm", "result": "(or, 11.04 ppm)"}, {"measurement": "LD50 (uM) in 4th instar", "setting": "mosquito larvae; [4]", "result": "24.04 ± 4.16", "unit": "µM"}, {"measurement": "fraction of midgut neutral lipids depleted", "setting": "[1]; 25 μM SCPI-1, 24 hour-old 4th instar larvae", "result": "about ½"}]}, {"molecule": "COc1c(O)cc2oc3cc(O)c(CC=C(C)C)c(O)c3c(=O)c2c1CC=C(C)C", "note": "[α-mangostin, 3,6,8-Trihydroxy-2-methoxy-1,7-bis(3-methylbut-2-enyl)xanthen-9-one]", "values": [{"measurement": "LD50 in 1st instar (ppm)", "setting": "mosquito larvae; [2]", "result": 1.12, "unit": "ppm"}, {"measurement": "LD50 (uM) in 1st instar", "setting": "mosquito larvae; [3]", "result": "2.73 ± 2.46", "unit": "µM"}, {"measurement": "LD50 in 4th instar (ppm)", "setting": "mosquito larvae; same LD50 expressed in ppm", "result": "(or, 4.18 ppm)"}, {"measurement": "LD50 (uM) in 4th instar", "setting": "mosquito larvae; [4]", "result": "10.18 ± 1.49", "unit": "µM"}, {"measurement": "reproductive side effects in mammals, measured by formation of complement C3", "setting": "complement C3", "result": "does not induce reproductive side effects"}, {"measurement": "neutral lipids in the midgut", "setting": "[1]; 10 μM α-mangostin, after 24 hours treatment, 4th instar larvae", "result": "scant amounts of neutral lipids"}, {"measurement": "decrease of NBD-cholesterol binding to AeSCP-2", "setting": "recombinant AeSCP-2", "result": "23-29%"}]}, {"molecule": "COc1c2c(c(CC=C(C)C)c3oc(=O)c(-c4ccc(O)cc4)c(O)c13)OC(C)(C)C=C2", "note": "[lonchocarpic acid]", "values": [{"measurement": "LD50 in 1st instar (ppm)", "setting": "mosquito larvae; [2]", "result": 5.21, "unit": "ppm"}, {"measurement": "LD50 (uM) in 1st instar", "setting": "mosquito larvae; [3]", "result": "11.99 ± 1.93", "unit": "µM"}]}, {"molecule": "obtusauione", "values": [{"measurement": "LD50 in 1st instar (ppm)", "setting": "mosquito larvae; [2]", "result": 1.62, "unit": "ppm"}, {"measurement": "LD50 (uM) in 1st instar", "setting": "mosquito larvae; [3]", "result": "6.36 ± 1.70", "unit": "µM"}]}]}
